Reference: US10266497B2 (ABIDE THERAPEUTICS, INC., priority 2017, dated 2019)

Experiments:
[1] = molecular target: T1, MAGL (Mus musculus, UniProt O35678); assay: In vitro competitive activity-based protein profiling, MAGL, mouse; details: read-out: MAGL % inh. 1 μM (mouse)
T1 sequence (O35678 1-303): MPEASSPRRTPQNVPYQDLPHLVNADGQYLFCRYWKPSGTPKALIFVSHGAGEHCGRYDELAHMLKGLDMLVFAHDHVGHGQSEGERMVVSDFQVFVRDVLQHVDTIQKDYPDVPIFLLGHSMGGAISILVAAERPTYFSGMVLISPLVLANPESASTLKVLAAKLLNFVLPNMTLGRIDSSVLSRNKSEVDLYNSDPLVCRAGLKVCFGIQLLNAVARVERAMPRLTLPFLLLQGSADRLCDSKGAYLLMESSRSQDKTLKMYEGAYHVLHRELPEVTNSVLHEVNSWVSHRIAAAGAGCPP

[2] = molecular target: T2, MAGL (Homo sapiens, UniProt Q99685); assay: In vitro competitive activity-based protein profiling, MAGL, human; details: read-out: MAGL % inh. 1 μM (human)
T2 sequence (Q99685 1-303): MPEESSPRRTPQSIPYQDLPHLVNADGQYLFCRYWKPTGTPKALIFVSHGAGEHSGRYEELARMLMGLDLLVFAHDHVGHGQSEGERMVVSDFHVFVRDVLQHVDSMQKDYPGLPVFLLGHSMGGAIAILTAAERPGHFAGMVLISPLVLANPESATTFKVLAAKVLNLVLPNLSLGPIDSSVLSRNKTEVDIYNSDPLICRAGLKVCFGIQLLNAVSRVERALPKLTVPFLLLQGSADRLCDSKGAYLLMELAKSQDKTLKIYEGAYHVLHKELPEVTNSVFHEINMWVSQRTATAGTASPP

Row | Compound | inhibition at 1 µM [1] | inhibition at 1 µM [2]
1 | O=C(O)c1ccn(C(=O)N2CCC(OCc3cc(Cl)cc(Oc4ccc(Cl)cc4)c3)CC2)n1 [Example 27, 1-(4-((3-Chloro-5-(4-chlorophenoxy)benzyl)oxy)piperidine-1-carbonyl)-1H-pyrazole-3-carboxylic Acid] | > 75% | > 75%
2 | O=C(O)c1ccn(C(=O)N2CCC3(CCN(Cc4cccc(Oc5cncnc5)c4)C3)CC2)n1 [Example 31, 1-(2-(3-(Pyrimidin-5-yloxy)benzyl)-2,8-diazaspiro[4.5]decane-8-carbonyl)-1H-pyrazole-3-carboxylic Acid] | 50 to 75% | 0 to 25%
3 | O=C(O)c1ccn(C(=O)N2C[C@H]3C[C@H](OCc4cccc(C5CCCC5)c4)C[C@H]3C2)n1 [Example 34, 1-(trans-5-((3-Cyclopentylbenzyl)oxy)octahydrocyclopenta[c]pyrrole-2-carbonyl)-1H-pyrazole-3-carboxylic Acid] | > 75% | > 75%
4 | CC(C)(O)COc1cccc(CN2CCN(C(=O)n3ccc(C(N)=O)n3)CC2)c1Cl [Example 37, 1-(4-(2-Chloro-3-(2-hydroxy-2-methylpropoxy)benzyl)piperazine-1-carbonyl)-1H-pyrazole-3-carboxamide] | > 75% | > 75%
5 | CC(C)(O)COc1cccc(CN2CCN(C(=O)n3ccc(C(=O)O)n3)CC2)c1Cl [Example 213, 1-(4-(2-chloro-3-(2-hydroxy-2-methylpropoxy)benzyl)piperazine-1-carbonyl)-1H-pyrazole-3-carboxylic acid] | > 75% | > 75%
6 | C[C@@H]1CN(Cc2cccc(OCC(C)(C)O)c2Cl)CCN1C(=O)n1ccc(C(N)=O)n1 [Example 216, (R)-1-(4-(2-chloro-3-(2-hydroxy-2-methylpropoxy)benzyl)-2-methylpiperazine-1-carbonyl)-1H-pyrazole-3-carboxamide] | > 75% | > 75%
7 | O=C(O)c1ccn(C(=O)N2CCC3(CCN(Cc4cc(Cl)ccc4C(F)(F)F)CC3)CC2)n1 [Example 217, 1-(9-(5-chloro-2-(trifluoromethyl)benzyl)-3,9-diazaspiro[5.5]undecane-3-carbonyl)-1H-pyrazole-3-carboxylic acid] | > 75% | > 75%
8 | O=C(O)c1ccn(C(=O)N2C[C@H]3C[C@H](Oc4cccc(C5CC5)c4)C[C@H]3C2)n1 [Example 219, 1-(trans-5-(3-cyclopropylphenoxy)octahydrocyclopenta [c]pyrrole-2-carbonyl)-1H-pyrazole-3-carboxylic acid] | > 75% | > 75%
9 | CC(C)c1ccccc1O[C@H]1C[C@@H]2CN(C(=O)n3ccc(C(=O)O)n3)C[C@@H]2C1 [Example 221, 1-(trans-5-(2-isopropylphenoxy)octahydrocyclopenta [c]pyrrole-2-carbonyl)-1H-pyrazole-3-carboxylic acid] | > 75% | > 75%
10 | O=C(O)c1ccn(C(=O)N2C[C@H]3C[C@H](Oc4cc(F)cc(Cl)c4)C[C@H]3C2)n1 [Example 222, 1-(trans-5-(3-chloro-5-fluorophenoxy)octa-hydrocyclopenta[c]pyrrole-2-carbonyl)-1H-pyrazole-3-carboxylic acid] | > 75% | > 75%
11 | Cc1ccc(C)c(CN2CCC3(CCN(C(=O)n4ccc(C(=O)O)n4)CC3)C2)c1 [Example 223, 1-(2-(2,5-dimethylbenzyl)-2,8-diazaspiro[4.5]decane-8-carbonyl)-1H-pyrazole-3-carboxylic acid] | 0 to 25% | > 75%
12 | O=C(O)c1ccn(C(=O)N2CCC(OCc3cc(Cl)cc(Cl)c3)CC2)n1 [Example 224, 1-(4-((3,5-dichlorobenzyl)oxy)piperidine-1-carbonyl)-1H-pyrazole-3-carboxylic acid] | > 75% | > 75%
